Columns and labels:
Format in all cases: functional
IGROV-1 = assay: Growth inhibition of human IGROV1 cells assessed as cell growth at 0.1 uM after 48 hrs by SRB assay; details: IGROV-1, 48 h, read-out: Activity
OVCAR-3 [1] = assay: Growth inhibition of human OVCAR3 cells assessed as cell growth at 10 uM after 48 hrs by SRB assay; details: OVCAR-3, 48 h, read-out: Activity
SF-539 = assay: Growth inhibition of human SF539 cells after 48 hrs by […] growth inhibition assay; details: SF-539, 48 h
NCI-H226 = assay: Growth inhibition of human NCI-H226 cells assessed as cell growth at 100 uM after 48 hrs by SRB assay; details: NCI-H226, 48 h, read-out: Activity
HCT-116 = assay: Growth inhibition of human HCT116 cells assessed as cell growth at 0.1 uM after 48 hrs by SRB assay; details: HCT-116, 48 h, read-out: Activity
SF-268 [2] = assay: Growth inhibition of human SF268 cells assessed as cell growth at 10 uM after 48 hrs by SRB assay; details: SF-268, 48 h, read-out: Activity
OVCAR-5 [3] = assay: Growth inhibition of human OVCAR5 cells after 48 hrs by […] growth inhibition assay; details: OVCAR-5, 48 h
OVCAR-4 = assay: Growth inhibition of human OVCAR4 cells after 48 hrs by […] growth inhibition assay; details: OVCAR-4, 48 h
HT-29 = assay: Growth inhibition of human HT-29 cells after 48 hrs by […] growth inhibition assay; details: HT-29, 48 h
NCI-H522 [4] = assay: Growth inhibition of human NCI-H522 cells assessed as cell growth at 100 uM after 48 hrs by SRB assay; details: NCI-H522, 48 h, read-out: Activity
UO-31 = assay: Growth inhibition of human UO31 cells assessed as cell growth at 10 uM after 48 hrs by SRB assay; details: UO-31, 48 h, read-out: Activity
HOP-62 [5] = assay: Growth inhibition of human HOP62 cells assessed as cell growth at 1 mM after 48 hrs by SRB assay; details: HOP-62, 48 h, read-out: Activity
OVCAR-5 [6] = assay: Growth inhibition of human OVCAR5 cells assessed as cell growth at 1 uM after 48 hrs by SRB assay; details: OVCAR-5, 48 h, read-out: Activity
NCI-H322M [7] = assay: Growth inhibition of human NCI-H322M cells assessed as cell growth at 0.1 uM after 48 hrs by SRB assay; details: read-out: Activity
Malme-3M = assay: Growth inhibition of human MALME-3M cells assessed as cell growth at 1 uM after 48 hrs by SRB assay; details: read-out: Activity
SF-268 [8] = assay: Growth inhibition of human SF268 cells assessed as cell growth at 1 uM after 48 hrs by SRB assay; details: SF-268, 48 h, read-out: Activity
MDA-MB-231 = assay: Growth inhibition of human MDA-MB-231 cells assessed as cell growth at 10 uM after 48 hrs by SRB assay; details: MDA-MB-231, 48 h, read-out: Activity
T47D = assay: Growth inhibition of human T47D cells assessed as cell growth at 1 mM after 48 hrs by SRB assay; details: read-out: Activity
ACHN = assay: Growth inhibition of human ACHN cells assessed as cell growth at 100 uM after 48 hrs by SRB assay; details: read-out: Activity
SF-268 [9] = assay: Growth inhibition of human SF268 cells assessed as cell growth at 0.1 uM after 48 hrs by SRB assay; details: SF-268, 48 h, read-out: Activity
[10] = Growth inhibition of human […] cells assessed as cell growth at 100 uM after 48 hrs by SRB assay; details: read-out: Activity
M14 = assay: Growth inhibition of human M14 cells assessed as cell growth at 0.1 uM after 48 hrs by SRB assay; details: M14, 48 h, read-out: Activity
NCI-H522 [11] = assay: Growth inhibition of human NCI-H522 cells assessed as cell growth at 1 mM after 48 hrs by SRB assay; details: NCI-H522, 48 h, read-out: Activity
CAKI-1 = assay: Growth inhibition of human Caki1 cells assessed as cell growth at 10 uM after 48 hrs by SRB assay; details: CAKI-1, 48 h, read-out: Activity
OVCAR-3 [12] = assay: Growth inhibition of human OVCAR3 cells assessed as cell growth at 1 uM after 48 hrs by SRB assay; details: OVCAR-3, 48 h, read-out: Activity
NCI-H322M [13] = assay: Growth inhibition of human NCI-H322M cells assessed as cell growth at 100 uM after 48 hrs by SRB assay; details: read-out: Activity
HOP-62 [14] = assay: Growth inhibition of human HOP62 cells assessed as cell growth at 100 uM after 48 hrs by SRB assay; details: HOP-62, 48 h, read-out: Activity
HCT-15 = assay: Growth inhibition of human HCT15 cells assessed as cell growth at 10 uM after 48 hrs by SRB assay; details: HCT-15, 48 h, read-out: Activity
KM12 = assay: Growth inhibition of human KM12 cells assessed as cell growth at 1 mM after 48 hrs by SRB assay; details: KM12, 48 h, read-out: Activity
NCI-H460 = assay: Growth inhibition of human NCI-H460 cells assessed as cell growth at 10 uM after 48 hrs by SRB assay; details: NCI-H460, 48 h, read-out: Activity
TK-10 [15] = assay: Growth inhibition of human TK10 cells assessed as cell growth at 1 mM after 48 hrs by SRB assay; details: TK-10, 48 h, read-out: Activity
SK-OV-3 = assay: Growth inhibition of human SKOV3 cells assessed as cell growth at 1 uM after 48 hrs by SRB assay; details: SK-OV-3, 48 h, read-out: Activity
LOX IMVI = assay: Growth inhibition of human LOXIMVI cells assessed as cell growth at 1 uM after 48 hrs by SRB assay; details: read-out: Activity
TK-10 [16] = assay: Growth inhibition of human TK10 cells assessed as cell growth at 0.1 uM after 48 hrs by SRB assay; details: TK-10, 48 h, read-out: Activity
HOP-92 = assay: Growth inhibition of human HOP92 cells assessed as cell growth at 1 uM after 48 hrs by SRB assay; details: HOP-92, 48 h, read-out: Activity
U-251 = assay: Growth inhibition of human U251 cells assessed as cell growth at 1 mM after 48 hrs by SRB assay; details: U-251, 48 h, read-out: Activity
[17] = read-out: LC50 (the source's name)
[18] = read-out: pLC50 (the source's name) (converted)

Q: With `CNC(=O)NC[C@H]1O[C@@H](n2cnc3c(NC(=O)Nc4ccccc4)ncnc32)[C@H](O[Si](C)(C)C(C)(C)C)[C@@H]1O[Si](C)(C)C(C)(C)C` as the compound, how does the growth at 0.1 µM (IGROV-1) read?
A: 100%

Q: What about the growth at 10 µM (OVCAR-3 [1]) of the same compound?
A: 113%

Q: What about the GI50 (SF-539; read-out: GI50) of the same compound?
A: 3.07 µM

Q: And the CC50 (SF-539; [17])?
A: 94.3 µM

Q: What about the TGI (SF-539; read-out: TGI) of the same compound?
A: 13 µM

Q: What about the GI50 (SF-539; read-out: pGI50 (converted)) of the same compound?
A: 3.09 µM

Q: What about the CC50 (SF-539; [18]) of the same compound?
A: 93.3 µM

Q: What about the TGI (SF-539; read-out: pTGI (converted)) of the same compound?
A: 12.9 µM

Q: And the growth at 100 µM (NCI-H226)?
A: -7%

Q: What about the growth at 0.1 µM (HCT-116) of the same compound?
A: 107%

Q: And the growth at 10 µM (SF-268 [2])?
A: 102%

Q: And the GI50 (OVCAR-5 [3]; read-out: GI50)?
A: 5.24 µM

Q: What about the CC50 (OVCAR-5 [3]; [17]) of the same compound?
A: > 100 µM

Q: And the TGI (OVCAR-5 [3]; read-out: TGI)?
A: 25.2 µM

Q: And the GI50 (OVCAR-5 [3]; read-out: pGI50 (converted))?
A: 5.25 µM

Q: What about the CC50 (OVCAR-5 [3]; [18]) of the same compound?
A: > 100 µM

Q: And the TGI (OVCAR-5 [3]; read-out: pTGI (converted))?
A: 25.1 µM

Q: What about the GI50 (OVCAR-4; read-out: GI50) of the same compound?
A: 3.44 µM

Q: And the CC50 (OVCAR-4; [17])?
A: > 100 µM

Q: What about the TGI (OVCAR-4; read-out: TGI) of the same compound?
A: 43.9 µM

Q: What about the GI50 (OVCAR-4; read-out: pGI50 (converted)) of the same compound?
A: 3.47 µM

Q: And the CC50 (OVCAR-4; [18])?
A: > 100 µM

Q: What about the TGI (OVCAR-4; read-out: pTGI) of the same compound?
A: 43.7 µM

Q: And the GI50 (HT-29; read-out: GI50)?
A: 2.02 µM

Q: And the CC50 (HT-29; [17])?
A: 6.91 µM

Q: And the TGI (HT-29; read-out: TGI)?
A: 3.73 µM

Q: And the GI50 (HT-29; read-out: pGI50 (converted))?
A: 2 µM

Q: What about the CC50 (HT-29; [18]) of the same compound?
A: 6.92 µM

Q: What about the TGI (HT-29; read-out: pTGI (converted)) of the same compound?
A: 3.72 µM

Q: What about the growth at 100 µM (NCI-H522 [4]) of the same compound?
A: -15%

Q: What about the growth at 10 µM (UO-31) of the same compound?
A: 84%

Q: What about the growth at 1000 µM (HOP-62 [5]) of the same compound?
A: -86%

Q: What about the growth at 1 µM (OVCAR-5 [6]) of the same compound?
A: 99%

Q: What about the growth at 0.1 µM (NCI-H322M [7]) of the same compound?
A: 102%

Q: And the growth at 1 µM (Malme-3M)?
A: 98%

Q: And the growth at 1 µM (SF-268 [8])?
A: 106%

Q: What about the growth at 10 µM (MDA-MB-231) of the same compound?
A: 106%

Q: And the growth at 1000 µM (T47D)?
A: -32%

Q: And the growth at 100 µM (ACHN)?
A: 10%

Q: What about the growth at 0.1 µM (SF-268 [9]) of the same compound?
A: 104%

Q: And the growth at 100 µM [10]?
A: 5%

Q: And the growth at 0.1 µM (M14)?
A: 101%

Q: And the growth at 1000 µM (NCI-H522 [11])?
A: -49%

Q: What about the growth at 10 µM (CAKI-1) of the same compound?
A: 96%

Q: And the growth at 1 µM (OVCAR-3 [12])?
A: 113%

Q: What about the growth at 100 µM (NCI-H322M [13]) of the same compound?
A: 39%

Q: What about the growth at 100 µM (HOP-62 [14]) of the same compound?
A: 26%

Q: What about the growth at 10 µM (HCT-15) of the same compound?
A: 100%

Q: And the growth at 1000 µM (KM12)?
A: -74%

Q: And the growth at 10 µM (NCI-H460)?
A: 88%

Q: And the growth at 1000 µM (TK-10 [15])?
A: -2%

Q: And the growth at 1 µM (SK-OV-3)?
A: 113%

Q: What about the growth at 1 µM (LOX IMVI) of the same compound?
A: 101%

Q: What about the growth at 0.1 µM (TK-10 [16]) of the same compound?
A: 110%

Q: What about the growth at 1 µM (HOP-92) of the same compound?
A: 80%

Q: What about the growth at 1000 µM (U-251) of the same compound?
A: -46%

Q: Which results are given for `CNC(=O)OC[C@H]1O[C@@H](n2cnc3c(NC(=O)Nc4ccccc4)ncnc32)[C@H](O[Si](C)(C)C(C)(C)C)[C@@H]1O[Si](C)(C)C(C)(C)C`?
A: growth at 10 µM (OVCAR-3 [1]): 107%; growth at 10 µM (SF-268 [2]): 85.2%; growth at 10 µM (UO-31): 106%; growth at 10 µM (MDA-MB-231): 110%; growth at 10 µM (CAKI-1): 106%; growth at 10 µM (HCT-15): 103%; growth at 10 µM (NCI-H460): 103%

— ChEMBL document CHEMBL1681651, “A broad spectrum anticancer nucleoside with selective toxicity against human colon cells in vitro” (2011)
